Laboratory results reported in patent US5554542A, “Immunoassay for isothiazolones” (Rohm and Haas Company, priority 1993, dated 1996).

Assays:
[1] = system: antibodies produced by cell culture 89-147EH9; assay: CIEIA for detection of biocides, four inhibitors at several concentrations; format: binding, mouse; settings: no inhibitor 515
Method: The supernatants from wells with growing colonies of hybridomas were screened using CIEIA. Ninety-six well polystyrene EIA ([…]) plates were coated with 100 μl of 651 conjugated to BSA (651-BSA) for at least two hours at room temperature or 16 hours at 4° C. Unbound material was washed from the wells with five washes of PBS-T. […] The wells then received 50 μl of supernatant from each cell culture, so that each supernatant was reacted with either buffer, 651 or 573 (inhibitors). […] The wells were incubated for 30-60 minutes at room temperature. They were then washed five times with PBS-T to remove unbound material and each well then received 100 μl of a 1 μg/ml solution of biotinylated horse anti-mouse IgG (Vector Laboratories, Burlingame, Calif.), and the assay continued as described for the ELISA, supra.

[2] = system: anti-651 antibody covalently linked to horseradish peroxidase; assay: Colorometric determination of isothiazolones in wood with anti-651-HRP; format: binding; settings: pressure treated Southern Yellow pine wafer, anti-651-HRP 500 ng/ml, ABTS, corrected for background; control wafer 0.002
Method: Southern Yellow pine, which had been pressure treated with a solution containing 4,5-dichloro-2-n-octyl-3-isothiazolone using commercial methods, was cut into wafers (0.5×2.5 cm). These wood wafers were soaked in a solution of 3% nonfat milk for 30 minutes. The wafers were then rinsed briefly with PBS-T, and then exposed to the anti-651 antibody, which is covalently linked to horseradish peroxidase at 500 ng/ml, for 15 minutes. The wafers were then washed twice for 30 minutes each in PBS-T buffer. The bound anti-651-HRP complex was visualized by placing the wafers in a vial containing HRP substrate (ABTS). The appearance of a […] color in the solution indicated the presence of 4,5-dichloro-2-n-octyl-3-isothiazolone. A 200 μl aliquot of the solution in the vial was taken and the absorbance determined at 405 nm. This was compared to a control wood wafer treated in an identical manner but containing no isothiazolone. The absorbance values were then corrected for background.

SMILES	10 Minute Absorbances × 1000 ([1]; inhibitor concentration 2 ppm)	10 Minute Absorbances × 1000 ([1]; inhibitor concentration 10 ppm)	10 Minute Absorbances × 1000 ([1]; inhibitor concentration 50 ppm)	A405 [2]	10 Minute Absorbances × 1000 ([1]; inhibitor concentration 0.08 ppm)	10 Minute Absorbances × 1000 ([1]; inhibitor concentration 0.4 ppm)
CCCCCCCCn1sccc1=O [compound 893, 2-n-octyl-3-isothiazolone]	514	589	516			
CCCCCCCCn1sc(Cl)c(Cl)c1=O [compound 287, 4,5-dichloro-2-n-octyl-3-isothiazolone]				0.165		
CNC(=O)CC(=O)O [NMA, Nmethyl malonamic acid]	496	518	490		429	519
